Legend:
Type in all cases: physicochemical
Solubility in hexane = details: printed as solvent volume per mass
Description: As pointed out above, the solubility of 3′-epilutein in solvents such as pentane, hexane, heptane, and petroleum ether (b.p.=35-60° C.) is much higher than that of (3R,3′R,6′R)-lutein. However; large scale separation with these non-polar hydrocarbons alone would require large volumes of solvents and is not practical. For example, the low solubility of 3′-epilutein in hexane (13 ml/mg) is indicative of the large volumes of this solvent needed for the partial separation of 3′-epilutein from (3R,3′R,6′R)-lutein by virtue of their differential solubilities. Therefore, a co-solvent may be employed to increase the solubility of 3′-epilutein and at the same time reduce the volume of the hydrocarbon solvent. […] Preferred ethers include diethyl ether, TBME, diisopropyl ether and the like. Preferred non-polar hydrocarbon solvents include pentane, hexane, heptane, petroleum ether and the like. The preferred petroleum ether is that fraction which boils at 35-60° C. The ratio of non-polar hydrocarbon solvent (or petroleum ether) to ether may range from 4:1, to about 2:1, more preferably, about 3:1. One of ordinary skill in the art may determine other ratios with no more than routine experimentation.

[1] = Solubility in non-polar hydrocarbon / organic solvents; details: pentane, hexane, heptane, cyclohexane, petroleum ether (b.p.=35-60° C.)
Description: Such solvents include pentane, hexane, heptane, cyclohexane, petroleum ether (b.p.=35-60° C.) and the like. Based on this difference in solubility behavior, a number of processes were developed which allowed the partial separation of 3′-epilutein from (3R,3′R,6′R)-lutein. These methods are a) solvent extraction, b) preferential crystallization, c) Soxhlet extraction, d) enzymatic acylation, and e) supercritical extraction with carbon dioxide. When each of these methods is applied separately to a 1:1 mixture of (3R,3′R,6′R)-lutein and 3′-epilutein, the partial separation of these carotenoids was accomplished and 3′-epilutein was obtained in 77-95% enrichment. […] The enrichment of 3′-epilutein in poorly separated mixtures may be further increased by low-temperature crystallization of (3R,3′R,6′R)-lutein from a C1-4 alcohol. Alcohols suitable for this crystallization include ethanol, methanol, propanol, 2-propanol and the like. The temperature at which the crystallization may be performed is between about −80° C. and about −40° C. […]
While (3R,3′R,6′R)-lutein and (3R,3′R)-zeaxanthin are not acylated with lipase AK or lipase PS, 3′-epilutein undergoes acylation at C-3′ to give 3′-epilutein-3′-acetate. As mentioned above, due to the difference in solubility between (3R,3′R,6′R)-lutein and 3′-epilutein, the enzymatic acylation can be readily carried out in the above-mentioned organic solvents. […]

[2] = Solubility in supercritical carbon dioxide; details: 5 mg scale
Description: The partial separation of (3R,3′R,6′R)-lutein and 3′-epilutein was also found to be quite feasible by the use of supercritical fluid extraction with carbon dioxide.
5 mg of an epimeric mixture of (3R,3′R,6′R)-lutein and 3-epilutein prepared from 97% pure (3R,3′R,6′R)-lutein (Table 2) was mixed with 0.70 g of hydromatrix (mixture of silica gel and diatomaceous earth). This was extracted with carbon dioxide in a Model Prep-Master supercritical fluid extraction apparatus (Suprex-ISCO, Inc., Lincoln, Nebr.). The conditions were as follows: flow=2 ml/min, restrictor temperature=50° C., desorb temperature=10° C., oven temperature=35° C. A two step gradient was employed for extraction of 3′-epilutein. Step one used 100 g of carbon dioxide at 300 atmosphere and step two 50 g of carbon dioxide at 375 atmosphere. Total of 2.4 mg of carotenoids was extracted with this 150 g of carbon dioxide. The extracted carotenoids were shown by HPLC to consist of 3′-epilutein (83%), (3R,3′R,6′R)-lutein (13%), anhydrolutein (2%), and Z-luteins (2%). Approximately 2.5 mg of carotenoids remained in the hydromatrix; these were: (3R,3′R,6′R)-lutein (77%), 3′-epilutein (13%), and (3R,3′R)-zeaxanthin (10%).

Row | Structure (SMILES) | solubility in hexane (Solubility in hexane) [mL/mg] | solubility in non-polar solvents (in words) [1] | solubility in supercritical carbon dioxide (in words) [2]
1 | CC1=C[C@@H](O)CC(C)(C)[C@H]1/C=C/C(C)=C/C=C/C(C)=C/C=C/C=C(C)/C=C/C=C(C)/C=C/C1=C(C)C[C@@H](O)CC1(C)C [3′-epilutein, (3R,3′S,6′R)-lutein] | 13 | slightly more soluble than (3R,3′R,6′R)-lutein | by far greater than that of (3R,3′R,6′R)-lutein and (3R,3′R)-zeaxanthin
2 | CC(=O)OC1C=C(C)C(C=CC(C)=CC=CC(C)=CC=CC=C(C)C=CC=C(C)C=CC2=C(C)CC(O)CC2(C)C)C(C)(C)C1 (stereo not shown) [3′-epilutein-3′-acetate] | – | highly soluble | –
